pIC50: −log10 of the molar value. Activity calls are given as the source filed them. The calls are words filed in the database; no cut-off is given here.
Columns and labels:
[1] = test system: HEK-293T; assay: Cytoprotective activity against CdCl2-induced cell death in human HEK293T cells assessed as increase in cell viability preincubated for 2 hrs followed by CdCl2 treatment and measured after 48 hrs by MTT assay; assay type: functional, cell-based
[2] = test system: HEK-293T; assay: Cytoprotective activity against CdCl2-induced cell death in human HEK293T cells at 25 to 100 uM preincubated for 2 hrs followed by CdCl2 treatment and measured after 12 hrs by MTT assay; assay type: functional, cell-based

SMILES	pIC50 [1]	Activity [2]
OC[C@H]1O[C@@H](OCc2ccccc2)[C@H](O)[C@@H](O)[C@@H]1O	4.10	Active
C[C@H](/C=C/[C@@]1(O)[C@H](C)CC(=O)CC1(C)C)O[C@@H]1O[C@H](CO)[C@@H](O)[C@H](OS(=O)(=O)O)[C@H]1O	–	Active
C[C@@H]1O[C@@H](OC[C@H]2O[C@@H](Oc3c(-c4ccc(O)c(O)c4)oc4cc(O)cc(O)c4c3=O)[C@H](O)[C@@H](O)[C@@H]2O)[C@H](O)[C@H](O)[C@H]1O	–	Active
CC1=CC(=O)CC(C)(C)[C@@]1(O)/C=C/[C@@H](C)O[C@@H]1O[C@H](CO)[C@@H](O)[C@H](O)[C@H]1O [6S,9R-ROSEOSIDE]	4.25	Active
C[C@H](CCc1ccc(O)cc1)O[C@@H]1O[C@H](CO)[C@@H](O)[C@H](OS(=O)(=O)O)[C@H]1O	–	Active
CC1=CC(=O)CC(C)(C)[C@@]1(O)/C=C/[C@@H](C)O[C@@H]1O[C@H](CO)[C@@H](O)[C@H](OS(=O)(=O)O)[C@H]1O	–	Active
O=c1c(O[C@@H]2O[C@H](CO)[C@@H](O)[C@H](O)[C@H]2O)c(-c2ccc(O)c(O)c2)oc2cc(O)cc(O)c12	–	Active
COc1cc(-c2oc3cc(O)cc(O)c3c(=O)c2O[C@@H]2O[C@H](CO[C@@H]3O[C@@H](C)[C@H](O)[C@@H](O)[C@H]3O)[C@@H](O)[C@H](O)[C@H]2O)ccc1O	–	Active
